The target in the assay is T1, recombinant sEH (Homo sapiens, UniProt P34913).
T1 construct: made in house; host or cells: Sf9 insect cells
T1 sequence (P34913 1-555): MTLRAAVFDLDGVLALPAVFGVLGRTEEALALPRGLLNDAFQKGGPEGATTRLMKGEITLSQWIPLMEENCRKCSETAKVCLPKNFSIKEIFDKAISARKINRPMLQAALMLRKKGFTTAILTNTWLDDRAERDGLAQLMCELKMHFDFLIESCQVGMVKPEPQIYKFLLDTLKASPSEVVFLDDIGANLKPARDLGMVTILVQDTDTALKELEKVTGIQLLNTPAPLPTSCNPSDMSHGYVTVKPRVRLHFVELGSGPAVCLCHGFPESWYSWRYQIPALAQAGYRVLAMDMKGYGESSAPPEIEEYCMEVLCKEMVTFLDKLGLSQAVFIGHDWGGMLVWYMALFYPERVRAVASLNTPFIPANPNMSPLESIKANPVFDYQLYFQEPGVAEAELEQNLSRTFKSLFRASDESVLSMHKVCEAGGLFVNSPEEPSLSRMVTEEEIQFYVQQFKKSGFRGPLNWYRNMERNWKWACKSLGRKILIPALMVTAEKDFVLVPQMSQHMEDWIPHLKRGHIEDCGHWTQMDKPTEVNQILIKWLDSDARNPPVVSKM
The experiment in a line: biochemical screening assay for inhibition of soluble epoxide hydrolase (fluorometric, Phome substrate). In outline: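 Reading fluorescence before substrate addition and after completion corrected for autofluorescence. Reaction: 5 μM Phome, 2 nM recombinant human sEH (Sf9-expressed), compound 0.0001–10 μM, 25 mM Hepes with 0.01% albumin, 15 min pre-incubation then 60 min at 30 °C; IC50 derived from % inhibition.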

Each structure is given as a SMILES string.

This note sets out measurements from patent US9540391B2, “Isomannide derivatives as inhibitors of soluble epoxide hydrolase” (SANOFI, priority 2013, dated 2017).

As to `C[C@@H](NC(=O)N[C@H]1CO[C@H]2[C@@H]1OC[C@@H]2Oc1ccc(F)cc1)c1ccc(F)cc1` [Example 159, 1-[(3S,3aR,6S,6aS)-6-(4-Fluoro-phenoxy)-hexahydro-furo[3,2-b]furan-3-yl]-3-[(R)-1-(4-fluoro-phenyl)-ethyl]-urea], the IC50 is 5 nM.
The figure for `C[C@H](NC(=O)N[C@H]1CO[C@H]2[C@@H]1OC[C@@H]2Oc1ccc(F)cc1)c1ccc(F)cc1` [Example 160, 1-[(3S,3aR,6S,6aS)-6-(4-Fluoro-phenoxy)-hexahydro-furo[3,2-b]furan-3-yl]-3-[(S)-1-(4-fluoro-phenyl)-ethyl]-urea] is 31 nM; for `C[C@H](NC(=O)N[C@H]1CO[C@H]2[C@@H]1OC[C@@H]2Oc1ccc(F)cc1)c1ccccc1` [Example 161, 1-[(3S,3aR,6S,6aS)-6-(4-Fluoro-phenoxy)-hexahydro-furo[3,2-b]furan-3-yl]-3-((S)-1-phenyl-ethyl)-urea] it is 47 nM.
On to `C[C@@H](NC(=O)N[C@H]1CO[C@H]2[C@@H]1OC[C@@H]2Oc1ccc(F)cc1)c1ccccc1` [Example 162, 1-[(3S,3aR,6S,6aS)-6-(4-Fluoro-phenoxy)-hexahydro-furo[3,2-b]furan-3-yl]-3-((R)-1-phenyl-ethyl)-urea], for which the IC50 was determined as 39 nM.
The figure for `O=C(N[C@H]1CO[C@H]2[C@@H]1OC[C@@H]2Oc1ccc(F)cc1)N[C@H]1CCCC[C@@H]1OCc1ccccc1` [Example 163, 1-((1S,2S)-2-Benzyloxy-cyclohexyl)-3-[(3S,3aR,6S,6aS)-6-(4-fluoro-phenoxy)-hexahydro-furo[3,2-b]furan-3-yl]-urea] is 192 nM; for `O=C(N[C@H]1CO[C@H]2[C@@H]1OC[C@@H]2Oc1ccc(F)cc1)N[C@@H]1CCCC[C@H]1OCc1ccccc1` [Example 164, 1-((1R,2R)-2-Benzyloxy-cyclohexyl)-3-[(3S,3aR,6S,6aS)-6-(4-fluoro-phenoxy)-hexahydro-furo[3,2-b]furan-3-yl]-urea] it is 487 nM; for `C[C@@H](NC(=O)N[C@H]1CO[C@H]2[C@@H]1OC[C@@H]2Oc1ccc(F)cc1)C1CCCCC1` [Example 165, 1-((R)-1-Cyclohexyl-ethyl)-3-[(3S,3aR,6S,6aS)-6-(4-fluoro-phenoxy)-hexahydro-furo[3,2-b]furan-3-yl]-urea] it is 21 nM.
In the case of `C[C@@H](NC(=O)N[C@H]1CO[C@H]2[C@@H]1OC[C@@H]2Oc1ccc(F)cc1)c1ccc(Cl)cc1` [Example 166, 1-[(R)-1-(4-Chloro-phenyl)-ethyl]-3-[(3S,3aR,6S,6aS)-6-(4-fluoro-phenoxy)-hexahydro-furo[3,2-b]furan-3-yl]-urea] it was 18 nM; in that of `COc1ccc([C@H](C)NC(=O)N[C@H]2CO[C@H]3[C@@H]2OC[C@@H]3Oc2ccc(F)cc2)cc1` [Example 167, 1-[(3S,3aR,6S,6aS)-6-(4-Fluoro-phenoxy)-hexahydro-furo[3,2-b]furan-3-yl]-3-[(S)-1-(4-methoxy-phenyl)-ethyl]-urea], 66 nM; in that of `COc1ccc([C@@H](C)NC(=O)N[C@H]2CO[C@H]3[C@@H]2OC[C@@H]3Oc2ccc(F)cc2)cc1` [Example 168, 1-[(3S,3aR,6S,6aS)-6-(4-Fluoro-phenoxy)-hexahydro-furo[3,2-b]furan-3-yl]-3-[(R)-1-(4-methoxy-phenyl)-ethyl]-urea], 6 nM.
As for `O=C(N[C@H]1CO[C@H]2[C@@H]1OC[C@@H]2Oc1ccc(F)cc1)NC1(c2cccs2)CCOCC1` [Example 169, 1-[(3S,3aR,6S,6aS)-6-(4-Fluoro-phenoxy)-hexahydro-furo[3,2-b]furan-3-yl]-3-(4-thiophen-2-yl-tetrahydro-pyran-4-yl)-urea], the half-maximal inhibitory concentration (IC50) came to 4460 nM.
Take `O=C(NC1CCOCC1)N[C@H]1CO[C@H]2[C@@H]1OC[C@@H]2Oc1ccc(F)cc1` [Example 170, 1-[(3S,3aR,6S,6aS)-6-(4-Fluoro-phenoxy)-hexahydro-furo[3,2-b]furan-3-yl]-3-(tetrahydro-pyran-4-yl)-urea]: the 50% inhibitory concentration (IC50) stood at 103 nM.
With `Cc1cc(CNC(=O)N[C@H]2CO[C@H]3[C@@H]2OC[C@@H]3Oc2cccnc2C)on1` [Example 171, 1-(3-Methyl-isoxazol-5-ylmethyl)-3-[(3S,3aR,6S,6aS)-6-(2-methyl-pyridin-3-yloxy)-hexahydro-furo[3,2-b]furan-3-yl]-urea], the half-maximal inhibitory concentration (IC50) was 2350 nM.
In the case of `Cc1ncccc1O[C@H]1CO[C@H]2[C@@H]1OC[C@@H]2NC(=O)NCc1ccccn1` [Example 172, 1-[(3S,3aR,6S,6aS)-6-(2-Methyl-pyridin-3-yloxy)-hexahydro-furo[3,2-b]furan-3-yl]-3-pyridin-2-ylmethyl-urea] it was 1240 nM; in that of `Cc1ncccc1OC1COC2C(NC(=O)NC3CC4CCC3(C)C4(C)C)COC12` [Example 173, 1-[(2R,3aS,5S,6S)-6-(2-Methyl-pyridin-3-yloxy)-hexahydro-furo[3,2-b]furan-3-yl]-3-((1R,2S,4R)-1,7,7-trimethyl-bicyclo[2.2.1]hept-2-yl)-urea], 5 nM; in that of `Cc1ncccc1O[C@H]1CO[C@H]2[C@@H]1OC[C@@H]2NC(=O)N[C@@H]1C[C@H](C)CC[C@H]1C(C)C` [Example 174, 1-((1R,2S,5R)-2-Isopropyl-5-methyl-cyclohexyl)-3-[(3S,3aR,6S,6aS)-6-(2-methyl-pyridin-3-yloxy)-hexa-hydro-furo[3,2-b]furan-3-yl]-urea], 31 nM.
On to `COCCCNC(=O)NC1COC2C(Oc3cccnc3C)COC12` [Example 175, 1-(3-Methoxy-propyl)-3-[(3S,3aR,-6S,6aS)-6-(2-methyl-pyridin-3-yl-oxy)-hexahydro-furo[3,2-b]furan-3-yl]-urea], for which the IC50 was found to be 975 nM.
Take `Cc1ncccc1O[C@H]1CO[C@H]2[C@@H]1OC[C@@H]2NC(=O)NCC1CCCO1` (stereo partly drawn) [Example 176, 1-[(3S,3aR,6S,6aS)-6-(2-Methyl-pyridin-3-yloxy)-hexahydro-furo[3,2-b]furan-3-yl]-3-(tetrahydro-furan-2-ylmethyl)-urea]: the IC50 amounted to 1450 nM.
In the case of `Cc1ncccc1O[C@H]1CO[C@H]2[C@@H]1OC[C@@H]2NC(=O)NCc1cccnc1` [Example 177, 1-[(3S,3aR,6S,6aS)-6-(2-Methyl-pyridin-3-yloxy)-hexahydro-furo[3,2-b]furan-3-yl]-3-pyridin-3-ylmethyl-urea] it was 456 nM.
In the case of `Cc1ncccc1O[C@H]1CO[C@H]2[C@@H]1OC[C@@H]2NC(=O)NC[C@H]1C[C@H]2C[C@@H]([C@@H]1C)C2(C)C` [Example 178, 1-[(3S,3aR,6S,6aS)-6-(2-Methyl-pyridin-3-yloxy)-hexahydro-furo[3,2-b]furan-3-yl]-3-((1S,2S,3S,5R)-2,6,6-trimethyl-bicyclo[3.1.1]hept-3-ylmethyl)-urea] it was 5 nM; in that of `Cc1ncccc1O[C@H]1CO[C@H]2[C@@H]1OC[C@@H]2NC(=O)NCc1ccccc1OC(F)(F)F` [Example 179, 1-[(3S,3aR,6S,6aS)-6-(2-Methyl-pyridin-3-yloxy)-hexahydro-furo[3,2-b]furan-3-yl]-3-(2-trifluoromethoxy-benzyl)-urea], less than 1 nM; in that of `Cc1ncccc1OC1COC2C(NC(=O)NCc3ccc(F)cc3)COC12` [Example 180, 1-(4-Fluoro-benzyl)-3-[(3S,3aR,6S,-6aS)-6-(2-methyl-pyridin-3-yloxy)-hexahydro-furo[3,2-b]furan-3-yl]-urea], 55 nM.
The figure for `Cc1ncccc1O[C@H]1CO[C@H]2[C@@H]1OC[C@@H]2NC(=O)N[C@H]1C[C@@H]2CC[C@H]1C2` [Example 181, 1-(1S,2S,4R)-Bicyclo[2.2.1]hept-2-yl-3-[(3S,3aR,6S,6aS)-6-(2-methyl-pyridin-3-yloxy)-hexahydro-furo[3,2-b]furan-3-yl]-urea] is 1 nM; for `Cc1ncccc1O[C@H]1CO[C@H]2[C@@H]1OC[C@@H]2NC(=O)NCC1(O)CCCCC1` [Example 182, 1-(1-Hydroxy-cyclohexylmethyl)-3-[(3S,3aR,6S,6aS)-6-(2-methyl-pyridin-3-yloxy)-hexahydro-furo[3,2-b]furan-3-yl]-urea] it is 96 nM; for `COCC(C)NC(=O)N[C@H]1CO[C@H]2[C@@H]1OC[C@@H]2Oc1cccnc1C` (stereo partly drawn) [Example 183, 1-(2-Methoxy-1-methyl-ethyl)-3-[(3S,3aR,6S,6aS)-6-(2-methyl-pyridin-3-yloxy)-hexahydro-furo[3,2-b]furan-3-yl]-urea] it is 846 nM.
As to `Cc1ncccc1O[C@H]1CO[C@H]2[C@@H]1OC[C@@H]2NC(=O)NCC1(c2ccccc2)CCCC1` [Example 184, 1-[(3S,3aR,6S,6aS)-6-(2-Methyl-pyridin-3-yloxy)-hexahydro-furo[3,2-b]furan-3-yl]-3-(1-phenyl-cyclopentylmethyl)-urea], the 50% inhibitory concentration (IC50) turned out to be 6 nM.
The figure for `Cc1ncccc1O[C@H]1CO[C@H]2[C@@H]1OC[C@@H]2NC(=O)NC(C)(C)Cc1ccc(F)cc1` [Example 185, 1-[2-(4-Fluoro-phenyl)-1,1-dimethyl-ethyl]-3-[(3S,3aR,6S,6aS)-6-(2-methyl-pyridin-3-yloxy)-hexahydro-furo[3,2-b]furan-3-yl]-urea] is 29 nM.

One may read the IC50 as the concentration that gives 50% inhibition.
